From PubChem BioAssay (NCI)
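Values below derive from 48-hour exposures of cells grown in 96-well plates, with endpoints linearly interpolated between the two concentrations bracketing the appropriate inhibition level. TGI: total growth inhibition.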

What was measured:
Assay in all cases: DTP human tumour cell line panel, 48 h
SK-MEL-5 melanoma = tested on: SK-MEL-5 melanoma
CCRF-CEM leukemia = tested on: CCRF-CEM leukemia
OVCAR-5 ovarian = tested on: OVCAR-5 ovarian
MALME-3M melanoma = tested on: MALME-3M melanoma
HOP-92 NSCLC = tested on: HOP-92 NSCLC
MDA-MB-435 = tested on: MDA-MB-435
SNB-19 CNS = tested on: SNB-19 CNS
SF-268 CNS = tested on: SF-268 CNS
T-47D breast = tested on: T-47D breast
NCI-H522 lung = tested on: NCI-H522 lung
UO-31 renal = tested on: UO-31 renal
PC-3 prostate = tested on: PC-3 prostate
SN12C renal = tested on: SN12C renal
BT-549 breast = tested on: BT-549 breast
SNB-75 CNS = tested on: SNB-75 CNS
NCI/ADR-RES ovarian = tested on: NCI/ADR-RES ovarian
HCT-116 colon = tested on: HCT-116 colon
UACC-257 melanoma = tested on: UACC-257 melanoma
TK-10 renal = tested on: TK-10 renal
OVCAR-8 ovarian = tested on: OVCAR-8 ovarian
ACHN renal = tested on: ACHN renal
A549 NSCLC = tested on: A549 NSCLC
MDA-N = tested on: MDA-N
HL-60(TB) leukemia = tested on: HL-60(TB) leukemia
DU-145 prostate = tested on: DU-145 prostate
U251 CNS = tested on: U251 CNS
MDA-MB-231 breast = tested on: MDA-MB-231 breast
OVCAR-3 ovarian = tested on: OVCAR-3 ovarian
HS 578T breast = tested on: HS 578T breast
SK-OV-3 ovarian = tested on: SK-OV-3 ovarian
CAKI-1 renal = tested on: CAKI-1 renal
EKVX NSCLC = tested on: EKVX NSCLC
SF-295 CNS = tested on: SF-295 CNS
NCI-H23 lung = tested on: NCI-H23 lung
786-0 renal = tested on: 786-0 renal
OVCAR-4 ovarian = tested on: OVCAR-4 ovarian
HOP-62 NSCLC = tested on: HOP-62 NSCLC
K-562 leukemia = tested on: K-562 leukemia
RXF 393 renal = tested on: RXF 393 renal
SK-MEL-2 melanoma = tested on: SK-MEL-2 melanoma
UACC-62 melanoma = tested on: UACC-62 melanoma
HT29 colon = tested on: HT29 colon
HCT-15 colon = tested on: HCT-15 colon
SK-MEL-28 melanoma = tested on: SK-MEL-28 melanoma
SW-620 colon = tested on: SW-620 colon
NCI-H226 lung = tested on: NCI-H226 lung
COLO 205 colon = tested on: COLO 205 colon
KM12 colon = tested on: KM12 colon
IGROV1 ovarian = tested on: IGROV1 ovarian
M14 melanoma = tested on: M14 melanoma
MOLT-4 leukemia = tested on: MOLT-4 leukemia
RPMI-8226 leukemia = tested on: RPMI-8226 leukemia
A498 renal = tested on: A498 renal
LOX IMVI melanoma = tested on: LOX IMVI melanoma
SR leukemia = tested on: SR leukemia
NCI-H460 lung = tested on: NCI-H460 lung
SF-539 CNS = tested on: SF-539 CNS

For `Cc1cc(S(=O)(=O)O)ccc1N=Nc1c(O)ccc2ccccc12`, the TGI (SK-MEL-5 melanoma) was > 100 µM, the TGI (CCRF-CEM leukemia) was > 100 µM and the TGI (OVCAR-5 ovarian) was > 100 µM. The TGI (MALME-3M melanoma) was > 100 µM, the TGI (HOP-92 NSCLC) was > 100 µM and the TGI (MDA-MB-435) was > 100 µM. For the same compound, the TGI (SNB-19 CNS) was > 100 µM, the TGI (SF-268 CNS) was > 100 µM and the TGI (T-47D breast) was > 100 µM. For the same compound, the TGI (NCI-H522 lung) was > 100 µM, the TGI (UO-31 renal) was > 100 µM and the TGI (PC-3 prostate) was > 100 µM. The TGI (SN12C renal) was > 100 µM, the TGI (BT-549 breast) was > 100 µM and the TGI (SNB-75 CNS) was > 100 µM. For the same compound, the TGI (NCI/ADR-RES ovarian) was > 100 µM, the TGI (HCT-116 colon) was > 100 µM and the TGI (UACC-257 melanoma) was > 100 µM. For the same compound, the TGI (TK-10 renal) was > 100 µM, the TGI (OVCAR-8 ovarian) was > 100 µM and the TGI (ACHN renal) was > 100 µM. For the same compound, the TGI (A549 NSCLC) was > 100 µM, the TGI (MDA-N) was > 100 µM and the TGI (HL-60(TB) leukemia) was > 100 µM. For the same compound, the TGI (DU-145 prostate) was > 100 µM, the TGI (U251 CNS) was > 100 µM and the TGI (MDA-MB-231 breast) was > 100 µM. For the same compound, the TGI (OVCAR-3 ovarian) was > 100 µM, the TGI (HS 578T breast) was > 100 µM and the TGI (SK-OV-3 ovarian) was > 100 µM. The TGI (CAKI-1 renal) was > 100 µM, the TGI (EKVX NSCLC) was > 100 µM and the TGI (SF-295 CNS) was > 100 µM. For the same compound, the TGI (NCI-H23 lung) was > 100 µM, the TGI (786-0 renal) was > 100 µM and the TGI (OVCAR-4 ovarian) was > 100 µM. For the same compound, the TGI (HOP-62 NSCLC) was > 100 µM, the TGI (K-562 leukemia) was > 100 µM and the TGI (RXF 393 renal) was > 100 µM. The TGI (SK-MEL-2 melanoma) was > 100 µM, the TGI (UACC-62 melanoma) was > 100 µM and the TGI (HT29 colon) was > 100 µM. For the same compound, the TGI (HCT-15 colon) was > 100 µM, the TGI (SK-MEL-28 melanoma) was > 100 µM and the TGI (SW-620 colon) was > 100 µM. The TGI (NCI-H226 lung) was > 100 µM, the TGI (COLO 205 colon) was > 100 µM and the TGI (KM12 colon) was > 100 µM. The TGI (IGROV1 ovarian) was > 100 µM, the TGI (M14 melanoma) was > 100 µM and the TGI (MOLT-4 leukemia) was > 100 µM. The TGI (RPMI-8226 leukemia) was > 100 µM.

For `C[C@H](NC1=CC(=O)C(N[C@@H](C)[C@H](O)c2ccccc2)=CC1=O)[C@H](O)c1ccccc1`, the TGI (A498 renal) was > 100 µM, the TGI (SK-MEL-5 melanoma) was > 100 µM and the TGI (CCRF-CEM leukemia) was > 100 µM. The TGI (OVCAR-5 ovarian) was > 100 µM, the TGI (MALME-3M melanoma) was > 100 µM and the TGI (HOP-92 NSCLC) was > 100 µM. For the same compound, the TGI (MDA-MB-435) was > 100 µM, the TGI (SNB-19 CNS) was > 100 µM and the TGI (SF-268 CNS) was > 100 µM. The TGI (T-47D breast) was > 100 µM, the TGI (NCI-H522 lung) was > 100 µM and the TGI (UO-31 renal) was > 100 µM. The TGI (PC-3 prostate) was > 100 µM, the TGI (SN12C renal) was > 100 µM and the TGI (BT-549 breast) was > 100 µM. For the same compound, the TGI (NCI/ADR-RES ovarian) was > 100 µM, the TGI (HCT-116 colon) was > 100 µM and the TGI (UACC-257 melanoma) was > 100 µM. The TGI (TK-10 renal) was > 100 µM, the TGI (OVCAR-8 ovarian) was > 100 µM and the TGI (ACHN renal) was > 100 µM. For the same compound, the TGI (A549 NSCLC) was > 100 µM, the TGI (LOX IMVI melanoma) was > 100 µM and the TGI (MDA-N) was > 100 µM. The TGI (HL-60(TB) leukemia) was > 100 µM, the TGI (DU-145 prostate) was > 100 µM and the TGI (U251 CNS) was > 100 µM. The TGI (MDA-MB-231 breast) was > 100 µM, the TGI (OVCAR-3 ovarian) was > 100 µM and the TGI (SR leukemia) was > 100 µM. The TGI (HS 578T breast) was > 100 µM, the TGI (SK-OV-3 ovarian) was > 100 µM and the TGI (CAKI-1 renal) was > 100 µM. The TGI (EKVX NSCLC) was > 100 µM, the TGI (SF-295 CNS) was > 100 µM and the TGI (NCI-H23 lung) was > 100 µM. The TGI (786-0 renal) was > 100 µM, the TGI (OVCAR-4 ovarian) was > 100 µM and the TGI (HOP-62 NSCLC) was > 100 µM. The TGI (K-562 leukemia) was > 100 µM, the TGI (RXF 393 renal) was > 100 µM and the TGI (SK-MEL-2 melanoma) was > 100 µM. The TGI (NCI-H460 lung) was > 100 µM, the TGI (UACC-62 melanoma) was > 100 µM and the TGI (HT29 colon) was 63.7 µM. The TGI (HCT-15 colon) was > 100 µM, the TGI (SK-MEL-28 melanoma) was > 100 µM and the TGI (SW-620 colon) was > 100 µM. The TGI (NCI-H226 lung) was > 100 µM, the TGI (COLO 205 colon) was > 100 µM and the TGI (KM12 colon) was > 100 µM. The TGI (IGROV1 ovarian) was > 100 µM, the TGI (M14 melanoma) was > 100 µM and the TGI (SF-539 CNS) was > 100 µM. For the same compound, the TGI (MOLT-4 leukemia) was > 100 µM and the TGI (RPMI-8226 leukemia) was > 100 µM.
